{"source": "patent US9023986B2", "about": "“Glucose-dependent insulinotropic peptide analogs” (Hoffmann-La Roche Inc., priority 2010, dated 2015)", "key": {"[1]": {"test": "stability in human plasma", "format": "in vitro ADME", "protocol": "(§1) The following study was conducted to assess the stability of the compound of Example 19 in Hannover Wistar rat and human plasma after 4 and 24 hours.\n(§2) 2.08 mg of the compound of Example 19 was weighed out and placed in a 4 mL amber vial. To this was added 1.0 mL DMSO. The vial was carefully vortexed to produce a 573 μM stock solution of the compound.\n(§3) Hannover Wistar rat plasma and human plasma (anti-coagulant sodium EDTA) were pre-warmed to 37° C. for 30 minutes in a water bath. Rat plasma pH was 7.45 and human plasma pH was 7.47. 1.5 mL microcentrifuge vials were used.\n(§4) 8.70 μL of 573 μM stock solution of the compound of Example 19 was added to 491.34 μL of the rat plasma and placed into one vial. 8.74 μL of 573 μM stock solution of the compound of Example 19 was added to 491.34 μL of the human plasma and placed into another vial. The two vials were gently vortexed ensuring proper mixing.\n(§5) Six new vials were labeled as follows: rat T0, rat T4, rat T24, human T0, human T4, human T24. To each of these vials, […] of treated plasma was added. The T4 and T24 vials were capped and placed in a 37° C. incubator for 4 and 24 hours, respectively.\n(§6) To each of the two T0 vials, 50 µL of Sorensen buffer and 200 μL 1.0% acetic acid in acetonitrile were added. The T0 vials were then capped, vortexed and centrifuged at 10000×g for 10 minutes. Upon completion of centrifugation, 100 μL of the supernatant of each vial was added to a separate well in a 96-well injection block. 200 μL of 0.1% acetic acid in Milli-Q® water (Millipore) was then added to each well.\n(§7) The above procedure as written with respect to the T0 vials was repeated for the two T4 vials at the 4 hour timepoint and the T24 vials at the 24 hour timepoint. With each timepoint a fresh T0 sample was prepared, as described above, to ensure there was no sample degradation.\n(§8) All samples were analyzed by LC/MS/MS. The resulting chromatographs were processed to obtain peaks areas for each sample. The percent of compound remaining at each timepoint as compared with the amount present in the comparison T0 sample was calculated."}, "[2]": {"test": "stability in Hannover Wistar rat plasma", "format": "in vitro ADME", "conditions": "for stability in rat plasma (in words): acceptance range 75-125%", "protocol": "as §1, §2, §3, §4, §5, §6, §7, §8"}, "human GIPR": {"target": "T1, human GIPR (Homo sapiens, UniProt P48546)", "T1 construct": "host or cells: CHO-K1", "T1 sequence (P48546 22-466)": "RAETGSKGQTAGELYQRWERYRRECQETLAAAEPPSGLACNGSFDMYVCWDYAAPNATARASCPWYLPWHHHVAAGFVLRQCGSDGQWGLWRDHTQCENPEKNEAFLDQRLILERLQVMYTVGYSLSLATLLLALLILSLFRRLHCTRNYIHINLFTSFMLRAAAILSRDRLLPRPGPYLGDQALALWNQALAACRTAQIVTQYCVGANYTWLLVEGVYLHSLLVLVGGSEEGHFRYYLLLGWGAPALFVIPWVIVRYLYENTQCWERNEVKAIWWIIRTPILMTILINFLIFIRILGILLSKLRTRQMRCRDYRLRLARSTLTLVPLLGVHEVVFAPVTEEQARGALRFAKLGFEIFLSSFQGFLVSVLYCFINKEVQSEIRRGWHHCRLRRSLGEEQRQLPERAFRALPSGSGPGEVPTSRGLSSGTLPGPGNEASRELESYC", "test": "cAMP production in CHO-K1 cells expressing human GIPR (LANCE cAMP assay)", "format": "cell-based", "conditions": "CHO-K1, read-out: % activation of cAMP (maximal stimulation)", "protocol": "CHO—K1 cells expressing human GIPR were obtained from DiscoverX Corporation (Fremont, Calif.). The cells were cultured in Ham's F-12 nutrient media supplemented with 10% foetal bovine serum, 800 μg/ml geneticin, 300 μg/ml hydromycin, 2 mM L-glutamine, and Penicillin-streptomycin (100 units, 100 μg) at 37° C. in a 5% CO2 incubator. The cells were harvested at 90% confluence.\nThe cells were suspended in Ham's F-12 nutrient media to a concentration of 200,000 cells/ml. The cells were then plated in a 384 well plate at with […] of the suspension added per well. The cells were incubated overnight at 37° C. in a 5% CO2 incubator.\nThe activity of the compounds was determined by stimulating the CHO—K1 cells with the test compound, and measuring the levels of cAMP produced. The activity of the compounds was compared to the activity of native GIP, as GIP stimulates cAMP production. 6 μl of the test compound in stimulation buffer (990 ml Hank's Balanced Salt solution (HBSS) (1×) (Invitrogen Corp #14025-092), 10 ml Hepes buffer solution (1 mol·L) (Invitrogen Corp 15630-080), 1 g BSA (final 0.1%), and 1 ml IBMX 250 mM stock prepared fresh in DMSO (Sigma-Aldrich 15879)) were added to cells, followed by 6 μl of Alexa Fluor® 647-anti cAMP antibody (Perkin Elmer) in stimulation buffer. […] The well plate was centrifuged for 3 min at 300 rpm, and incubated at room temperature for 45 minutes. 12 μl of detection mixture (biotin cAMP and EUW8044 labeled streptavidin (Eu-SA) in cAMP Detection Buffer (Perkin Elmer)) was added and incubated for 60 min at room temperature.\nThe levels of cAMP produced were measured according to the detailed protocol outlined in the Perkin Elmer LANCE cAMP Assay Perkin Elmer Lance cAMP Kit manual. The activity of the compounds was compared to the activity of native GIP.\nThe plates are read on a TRF detection instrument, EnVision® (Perkin Elmer) (excitation at 340 nm and emission at 665 nm). The values of the cAMP signal are obtained from the standard cAMP curve and used to determine the amount of maximal stimulation, and EC50 for stimulating the cAMP signal."}}, "note": "Non-standard residues stand in square brackets, D forms with d. Residues, ends and D or L forms follow the SMILES beside them.", "data": [{"smiles": "CC[C@H](C)[C@H](NC(=O)[C@H](C)NC(=O)[C@H](CC(=O)O)NC(=O)[C@H](CCSC)NC(=O)[C@H](C)NC(=O)[C@@H](NC(=O)[C@H](CO)NC(=O)[C@H](Cc1ccc(O)cc1)NC(=O)[C@H](CC(=O)O)NC(=O)[C@H](CO)NC(=O)[C@@H](NC(=O)[C@H](Cc1ccccc1)NC(=O)[C@@H](NC(=O)CNC(=O)[C@H](CCC(=O)O)NC(=O)[C@H](C)NC(=O)[C@@H](Cc1ccc(O)cc1)NC(C)=O)[C@@H](C)O)[C@@H](C)CC)[C@@H](C)CC)C(=O)N[C@@H](Cc1c[nH]cn1)C(=O)N[C@@H](CCC(N)=O)C(=O)N[C@@H](CCC(N)=O)C(=O)N[C@@H](CC(=O)O)C(=O)N[C@@H](Cc1ccccc1)C(=O)N[C@H](C(=O)N[C@@H](CC(N)=O)C(=O)N[C@@H](Cc1c[nH]c2ccccc12)C(=O)N[C@@H](CC(C)C)C(=O)N[C@@H](CC(C)C)C(=O)N[C@@H](C)C(=O)N[C@@H](CCC(N)=O)C(=O)N[C@@H](CCCCN)C(N)=O)C(C)C", "note": "[Example 19] (Ac-[dY]AEGTFISDYSIAMDAIHQQDFVNWLLAQK-NH2)", "values": [{"measurement": "stability in human plasma (in words)", "setting": "[1]; both the 4 hour and the 24 hour timepoints", "result": "stable"}, {"measurement": "remaining at 4 h, 10 µM", "setting": "[1]; pH 7.47, 10 uM, 37° C., 4 hr, vs T0 sample, LC/MS/MS", "result": 93.6, "unit": "%"}, {"measurement": "remaining at 24 h, 10 µM", "setting": "[1]; pH 7.47, 10 uM, 37° C., 24 hr, vs T0 sample, LC/MS/MS", "result": 75.9, "unit": "%"}, {"measurement": "% Remaining 4 hr, Rat", "setting": "[2]; 10 uM, 37° C., 4 hr, vs T0 sample, LC/MS/MS", "result": 124.7, "unit": "%"}, {"measurement": "stability in rat plasma (in words)", "setting": "[2]; 4 hours", "result": "stable"}, {"measurement": "stability in rat plasma (in words)", "setting": "[2]; 24 hour timepoint", "result": "slightly below the acceptance range"}, {"measurement": "remaining at 24 h, 10 µM", "setting": "[2]; Hannover Wistar, pH 7.45, 10 uM, 37° C., 24 hr, vs T0 sample, LC/MS/MS", "result": 72.7, "unit": "%"}, {"measurement": "Emax", "setting": "human GIPR", "result": 100, "unit": "%"}]}]}
